ChEMBL document CHEMBL1201862, “PubChem BioAssay data set” (2004)
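All cell lines were grown in 96-well plates and treated with compound for 48 hours. GI50 = concentration required for 50% inhibition of growth.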 The source made the active and inactive calls. No stated cut-off is given here; in the data, active = GI50 up to about 1.1 µM and inactive = higher.

Legend:
Assay in all cases: DTP human tumour cell line panel, 48 h
MDA-MB-231 = system: MDA-MB-231
M14 = system: M14
NCI/ADR-RES = system: NCI/ADR-RES
MCF7 = system: MCF7
LOX IMVI = system: LOX IMVI
SF-268 = system: SF-268
ACHN = system: ACHN
MDA-MB-435 = system: MDA-MB-435
HT-29 = system: HT-29
OVCAR-4 = system: OVCAR-4
SN12C = system: SN12C
HL-60 = system: HL-60
A549 = system: A549
UO-31 = system: UO-31
MDA-N = system: MDA-N
OVCAR-3 = system: OVCAR-3
NCI-H460 = system: NCI-H460
CAKI-1 = system: CAKI-1
SF-295 = system: SF-295
NCI-H23 = system: NCI-H23

Measured: GI50

COc1ccc2cc(NC(=O)N/N=C\c3ccc(Cl)cc3)ccc2c1
inactive: MDA-MB-231 27.5 µM | M14 > 100 µM | NCI/ADR-RES 86.3 µM | MCF7 > 100 µM | LOX IMVI > 100 µM | SF-268 44.1 µM | ACHN > 100 µM | MDA-MB-435 69.8 µM | HT-29 > 100 µM | OVCAR-4 27 µM | SN12C > 100 µM | HL-60 > 100 µM | A549 > 100 µM | UO-31 > 100 µM | MDA-N > 100 µM | OVCAR-3 > 100 µM | NCI-H460 50 µM | CAKI-1 > 100 µM | SF-295 59.6 µM | NCI-H23 > 100 µM

Cc1nc2c(o1)C(=O)c1ccccc1/C2=N/c1ccccn1
inactive: MDA-MB-231 15.6 µM | M14 18.6 µM | NCI/ADR-RES 15.8 µM | MCF7 17.7 µM | LOX IMVI 19.1 µM | SF-268 24.2 µM | ACHN 17.3 µM | MDA-MB-435 17.9 µM | HT-29 18.8 µM | OVCAR-4 15 µM | SN12C 24.9 µM | HL-60 15.5 µM | A549 31.8 µM | UO-31 22.6 µM | MDA-N 17.3 µM | OVCAR-3 4.66 µM | NCI-H460 14.6 µM | CAKI-1 25.8 µM | SF-295 > 100 µM | NCI-H23 11.5 µM

Cc1cc(S(=O)(=O)Nc2nc3ccccc3c(=O)n2N)c(S)cc1Cl
inactive: MDA-MB-231 32.9 µM | M14 39.6 µM | NCI/ADR-RES 24.5 µM | MCF7 71.1 µM | LOX IMVI 37.2 µM | ACHN 33.6 µM | MDA-MB-435 32.7 µM | HT-29 53 µM | OVCAR-4 29.6 µM | SN12C 44.5 µM | HL-60 > 100 µM | A549 31.1 µM | MDA-N 38.1 µM | OVCAR-3 44.6 µM | NCI-H460 33.4 µM | CAKI-1 31.8 µM | SF-295 28.3 µM | NCI-H23 31.8 µM

CC1(C)C(c2ccccc2)=[N+]([O-])C(C)(C)N1O
inactive: MDA-MB-231 > 10 µM | M14 > 10 µM | NCI/ADR-RES > 10 µM | MCF7 > 10 µM | LOX IMVI > 10 µM | SF-268 > 10 µM | ACHN > 10 µM | MDA-MB-435 > 10 µM | HT-29 > 10 µM | OVCAR-4 > 10 µM | SN12C > 10 µM | HL-60 > 10 µM | A549 > 10 µM | MDA-N > 10 µM | OVCAR-3 > 10 µM | NCI-H460 > 10 µM | CAKI-1 > 10 µM | SF-295 > 10 µM | NCI-H23 > 10 µM

CCOC(=O)Cc1ccc(Nc2nc3cc(F)c(F)cc3nc2C(=O)OCC)cc1
inactive: MDA-MB-231 2.34 µM | M14 35.1 µM | NCI/ADR-RES 43.9 µM | MCF7 37.6 µM | LOX IMVI 28.1 µM | SF-268 64.9 µM | ACHN 18.4 µM | MDA-MB-435 65.6 µM | HT-29 53.7 µM | OVCAR-4 57 µM | SN12C 74.5 µM | HL-60 39.3 µM | A549 74 µM | UO-31 1.52 µM | MDA-N 45 µM | OVCAR-3 47.2 µM | NCI-H460 69.5 µM | CAKI-1 19.1 µM | SF-295 73.1 µM | NCI-H23 26 µM

O=C1C2=Cc3ccccc3CCN2c2ccccc21
inactive: MDA-MB-231 > 41.9 µM | M14 16.1 µM | NCI/ADR-RES 30.1 µM | MCF7 14.9 µM | LOX IMVI 17.3 µM | SF-268 > 50.8 µM | ACHN 17.3 µM | MDA-MB-435 28.7 µM | HT-29 14.9 µM | OVCAR-4 33.7 µM | SN12C 18.8 µM | HL-60 18.9 µM | A549 49.2 µM | UO-31 42.8 µM | MDA-N > 10 µM | OVCAR-3 91.4 µM | NCI-H460 21.2 µM | CAKI-1 19.1 µM | SF-295 34.4 µM | NCI-H23 > 59.6 µM

CC1C2CC(CC23OCC(CCl)O3)C1(C)C (stereo unspecified)
inactive: MDA-MB-231 > 100 µM | M14 > 100 µM | NCI/ADR-RES > 100 µM | MCF7 > 100 µM | LOX IMVI > 100 µM | SF-268 > 100 µM | ACHN > 100 µM | MDA-MB-435 > 100 µM | HT-29 > 100 µM | OVCAR-4 > 100 µM | SN12C > 100 µM | HL-60 > 100 µM | A549 > 100 µM | UO-31 > 100 µM | MDA-N > 100 µM | OVCAR-3 > 100 µM | NCI-H460 > 100 µM | CAKI-1 > 100 µM | SF-295 > 100 µM | NCI-H23 > 100 µM

O=C1/C(=C/c2ccccc2O)N=C(c2ccccc2)N1C1Nc2cc3c(cc2S1)NC(N1C(=O)/C(=C/c2ccccc2O)N=C1c1ccccc1)S3 (stereo unspecified)
inactive: MDA-MB-231 32.7 µM | M14 38.3 µM | NCI/ADR-RES 10.5 µM | MCF7 2.13 µM | LOX IMVI 42.2 µM | SF-268 16.6 µM | ACHN 21.7 µM | MDA-MB-435 14.8 µM | HT-29 42.3 µM | OVCAR-4 60.5 µM | HL-60 28.9 µM | UO-31 23 µM | MDA-N 14 µM | OVCAR-3 55.1 µM | NCI-H460 12.5 µM | CAKI-1 56.5 µM | SF-295 42.1 µM | NCI-H23 31.9 µM

COC(=O)C1CCC(=O)N1C(c1ccccc1)c1ccc(OC)c(OC)c1 (stereo unspecified)
inactive: MDA-MB-231 > 100 µM | M14 > 100 µM | NCI/ADR-RES > 100 µM | MCF7 > 100 µM | LOX IMVI > 100 µM | SF-268 > 100 µM | ACHN > 100 µM | MDA-MB-435 > 100 µM | HT-29 > 100 µM | OVCAR-4 > 100 µM | SN12C > 100 µM | HL-60 > 100 µM | A549 > 100 µM | UO-31 > 100 µM | MDA-N > 100 µM | OVCAR-3 > 100 µM | NCI-H460 > 100 µM | CAKI-1 > 100 µM | SF-295 > 100 µM | NCI-H23 > 100 µM

O=C(N(C1=CCCC1)N(c1ccccc1)c1ccccc1)C(F)(F)F
inactive: MDA-MB-231 16.9 µM | M14 26.2 µM | NCI/ADR-RES 28.8 µM | MCF7 19.7 µM | LOX IMVI 15.8 µM | SF-268 16.7 µM | ACHN 17.3 µM | MDA-MB-435 21.1 µM | HT-29 17.3 µM | OVCAR-4 25.4 µM | SN12C 26.9 µM | HL-60 20.3 µM | A549 26.4 µM | UO-31 31.6 µM | MDA-N 23.9 µM | OVCAR-3 18.9 µM | NCI-H460 17.5 µM | CAKI-1 20.2 µM | SF-295 22.6 µM | NCI-H23 30.4 µM

COC(=O)/C=C/[C@H]1[C@H](C)N1S(=O)(=O)c1ccc(C)cc1 (stereo partly specified)
inactive: MDA-MB-231 > 100 µM | M14 > 100 µM | NCI/ADR-RES > 100 µM | MCF7 64.3 µM | LOX IMVI 61.7 µM | SF-268 > 100 µM | ACHN 89.7 µM | MDA-MB-435 56.5 µM | HT-29 > 100 µM | OVCAR-4 56.8 µM | SN12C > 100 µM | HL-60 > 99.5 µM | A549 > 100 µM | MDA-N > 100 µM | OVCAR-3 58.7 µM | NCI-H460 > 100 µM | CAKI-1 > 100 µM | SF-295 > 100 µM | NCI-H23 74.3 µM

CCN(CC)CCC(=O)OC1C(C)=CC(C)C(=O)CC(C(C)CC2CCC(O)C(OC)C2)OC(=O)C2CCCCN2C(=O)C(=O)[C@@]2(O)OC(CCC2C)CC(OC)\C(C)=C/C=C/C=C/C(C)CC(C)C(=O)C1OC (stereo partly specified)
inactive: MDA-MB-231 12.8 µM | M14 10.4 µM | NCI/ADR-RES 11.3 µM | MDA-MB-435 4.57 µM | HT-29 1.91 µM | SN12C 6.37 µM | HL-60 1.96 µM | MDA-N 8.61 µM | OVCAR-3 11.2 µM | NCI-H23 11.7 µM
active: MCF7 < 0.01 µM | LOX IMVI < 0.01 µM | SF-268 1.07 µM | ACHN 1.05 µM | OVCAR-4 < 0.01 µM | A549 < 0.01 µM | UO-31 < 0.01 µM | CAKI-1 0.975 µM | SF-295 < 0.01 µM

CN(CCCNC(=O)c1nn(-c2ccc(Cl)cc2Cl)c2c1ccc1ccccc12)CCCNC(=O)c1nn(-c2ccc(Cl)cc2Cl)c2c1ccc1ccccc12
inactive: MDA-MB-231 1.75 µM | M14 1.6 µM | NCI/ADR-RES 1.59 µM | MCF7 1.56 µM | LOX IMVI 1.69 µM | SF-268 1.61 µM | ACHN 1.66 µM | MDA-MB-435 1.71 µM | HT-29 1.57 µM | OVCAR-4 1.68 µM | SN12C 1.65 µM | A549 1.63 µM | MDA-N 1.73 µM | OVCAR-3 1.72 µM | NCI-H460 1.78 µM | CAKI-1 1.58 µM | SF-295 1.67 µM | NCI-H23 1.81 µM
active: HL-60 0.322 µM

COc1cc2c(cc1OC)C(=O)/C(=C/c1ccc([N+](=O)[O-])cc1)CC2
inactive: MDA-MB-231 > 10 µM | M14 > 10 µM | NCI/ADR-RES > 10 µM | MCF7 > 10 µM | LOX IMVI > 10 µM | SF-268 > 10 µM | ACHN > 10 µM | MDA-MB-435 > 10 µM | HT-29 > 10 µM | OVCAR-4 > 10 µM | SN12C > 10 µM | HL-60 > 10 µM | A549 > 10 µM | MDA-N > 10 µM | OVCAR-3 > 10 µM | NCI-H460 > 10 µM | CAKI-1 > 10 µM | SF-295 > 10 µM | NCI-H23 > 10 µM
